Results as given in ChEMBL document CHEMBL1201862, “PubChem BioAssay data set” (2004).
pIC50: −log10 of the molar value. The source made the active and inactive calls.

Columns and labels:
[1] = biological target: T1, G-protein coupled receptor 35 (Homo sapiens, UniProt Q9HC97); assay: SAR analysis of Agonists of the GPR35 Receptor using an Image-Based Assay - Set 2. [Related pubchem assays (depositor defined):AID2013, AID2026]; type: functional
Cannabinoid receptor 2 [2] = biological target: T2, Cannabinoid receptor 2 (Homo sapiens, UniProt P34972); assay: SAR analysis of agonists of the Cannabinoid Receptor 2 using an Image-Based Assay. [Related pubchem assays (depositor defined):AID2013, AID2026]; type: functional
T2 sequence (P34972 whole entry): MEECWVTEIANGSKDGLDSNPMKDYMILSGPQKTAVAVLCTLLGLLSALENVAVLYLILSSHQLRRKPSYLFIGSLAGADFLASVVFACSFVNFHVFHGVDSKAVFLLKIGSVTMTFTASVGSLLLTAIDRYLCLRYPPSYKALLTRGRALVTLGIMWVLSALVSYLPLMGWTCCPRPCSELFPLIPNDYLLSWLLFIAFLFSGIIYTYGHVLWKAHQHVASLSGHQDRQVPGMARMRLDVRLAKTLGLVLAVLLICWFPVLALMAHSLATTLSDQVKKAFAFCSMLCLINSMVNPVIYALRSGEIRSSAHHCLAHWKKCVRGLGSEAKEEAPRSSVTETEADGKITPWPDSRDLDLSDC

Cannabinoid receptor 1 [3] = biological target: T3, Cannabinoid receptor 1 (Homo sapiens, UniProt P21554); assay: SAR analysis of antagonists of the Cannabinoid Receptor 1 using an Image-Based Assay - Set 2. [Related pubchem assays (depositor defined):AID2013, AID2026]; type: functional
T3 sequence (P21554 whole entry, the tested form may be a part): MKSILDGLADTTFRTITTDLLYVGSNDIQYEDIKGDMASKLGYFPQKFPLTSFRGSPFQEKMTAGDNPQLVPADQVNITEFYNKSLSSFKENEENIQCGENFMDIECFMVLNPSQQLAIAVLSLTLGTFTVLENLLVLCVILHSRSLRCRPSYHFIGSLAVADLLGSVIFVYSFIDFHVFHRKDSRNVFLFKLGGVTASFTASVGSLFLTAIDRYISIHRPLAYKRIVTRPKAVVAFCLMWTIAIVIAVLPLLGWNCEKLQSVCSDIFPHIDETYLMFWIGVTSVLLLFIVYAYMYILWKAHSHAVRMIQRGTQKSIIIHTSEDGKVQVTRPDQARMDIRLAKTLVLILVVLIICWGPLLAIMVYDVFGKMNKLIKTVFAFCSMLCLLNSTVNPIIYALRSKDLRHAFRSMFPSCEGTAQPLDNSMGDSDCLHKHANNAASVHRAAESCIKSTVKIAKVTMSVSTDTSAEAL

[4] = inhibitors of HIV Env-driven cell fusion, dose response, cherry-pick (AID 652057); type: functional, cell-based
X-box-binding protein 1 = biological target: T4, X-box-binding protein 1 (Homo sapiens, UniProt P17861); type: functional, Cricetulus griseus;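 note: confirmatory dose-response counter-screen serving a CHOP assay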
T4 sequence (P17861 whole entry): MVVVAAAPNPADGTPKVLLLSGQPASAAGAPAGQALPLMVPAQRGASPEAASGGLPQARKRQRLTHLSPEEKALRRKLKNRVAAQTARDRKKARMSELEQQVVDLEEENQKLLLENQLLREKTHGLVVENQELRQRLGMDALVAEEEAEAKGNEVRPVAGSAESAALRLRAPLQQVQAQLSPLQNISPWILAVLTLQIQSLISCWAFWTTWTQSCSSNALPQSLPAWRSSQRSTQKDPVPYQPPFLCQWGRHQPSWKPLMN

[5] = inhibitors of clade B AD8 Env fusion, dose response, cell-based, cherry-pick (AID 652062); type: functional;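 note: luciferase signal from cell-cell fusion driven by HIV-1 clade B AD8 Env; potency is for inhibitors of fusion seen as a drop in luminescence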
Cannabinoid receptor 1 [6] = biological target: T3, Cannabinoid receptor 1; assay: SAR analysis of agonists of the Cannabinoid Receptor 1 using an Image-Based Assay - Set 2. [Related pubchem assays (depositor defined):AID2013, AID2026]; type: functional
[7] = off-target signal loss in HeLa-CEM21 co-culture – HeLa F-luc CTL cells, cherry-picked, counter-screen for HIV-1 Env fusion inhibitor project, dose response (AID 652040); type: functional, cell-based;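 note: potency for signal decrease marking cytotoxic or nonspecific inhibition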
[8] = ZM109 Env clade C HIV-1 fusion inhibitors, dose response, HeLa effector, CEM target cells, luciferase, cherry-pick (AID 652058); type: functional, cell-based
[9] = CEM21 lymphoblast cell cytotoxicity, dose response, cytotoxicity control for viral fusion inhibitor project, CellTiter-Glo luminescence, cherry-picked (AID 652042); type: functional, cell-based;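 note: potency for signal decrease meaning cytotoxicity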
Cannabinoid receptor 2 [10] = biological target: T2, Cannabinoid receptor 2; assay: SAR analysis of antagonists of the Cannabinoid Receptor 2 using an Image-Based Assay. [Related pubchem assays (depositor defined):AID2013, AID2026]; type: functional
[11] = biological target: T1, G-protein coupled receptor 35; assay: SAR analysis of Antagonists of the GPR35 Receptor using an Image-Based Assay - Set 3. [Related pubchem assays (depositor defined):AID2013, AID2026]; type: functional
[12] = biological target: T5, G-protein coupled receptor 55 (Homo sapiens, UniProt Q9Y2T6); assay: GPR55 antagonist potency of analogs, SAR follow-up, imaging, U2OS, beta-arrestin-GFP, LPI agonist, set 2 (AID 2820); type: functional
T5 sequence (Q9Y2T6 whole entry): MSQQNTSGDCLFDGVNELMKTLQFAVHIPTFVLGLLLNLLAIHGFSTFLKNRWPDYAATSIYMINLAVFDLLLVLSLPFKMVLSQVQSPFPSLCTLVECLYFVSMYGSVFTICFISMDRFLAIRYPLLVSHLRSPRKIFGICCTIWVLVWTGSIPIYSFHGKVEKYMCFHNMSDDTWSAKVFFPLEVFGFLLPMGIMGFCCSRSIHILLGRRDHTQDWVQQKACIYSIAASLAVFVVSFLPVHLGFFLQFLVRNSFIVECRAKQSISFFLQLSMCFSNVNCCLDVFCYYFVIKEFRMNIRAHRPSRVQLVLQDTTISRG

[13] = biological target: T5, G-protein coupled receptor 55; assay: GPR55 antagonists blocking LPI-driven arrestin recruitment, primary screen, imaging, U2OS, beta-arrestin-GFP, LPI agonist (AID 2013); type: functional;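 note: antagonist potency measured as reduced agonist-driven arrestin aggregation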
Protein RecA = biological target: T6, Protein RecA (Mycobacterium tuberculosis, UniProt P9WHJ3); assay: Fluorescence Cell-Free Homogeneous Dose Retest to Identify Inhibitors of RecA-Intein Splicing Activity. [Related pubchem assays (depositor defined):AID2097, AID2223, AID489010, AID492950]; type: functional
T6 sequence (P9WHJ3 whole entry): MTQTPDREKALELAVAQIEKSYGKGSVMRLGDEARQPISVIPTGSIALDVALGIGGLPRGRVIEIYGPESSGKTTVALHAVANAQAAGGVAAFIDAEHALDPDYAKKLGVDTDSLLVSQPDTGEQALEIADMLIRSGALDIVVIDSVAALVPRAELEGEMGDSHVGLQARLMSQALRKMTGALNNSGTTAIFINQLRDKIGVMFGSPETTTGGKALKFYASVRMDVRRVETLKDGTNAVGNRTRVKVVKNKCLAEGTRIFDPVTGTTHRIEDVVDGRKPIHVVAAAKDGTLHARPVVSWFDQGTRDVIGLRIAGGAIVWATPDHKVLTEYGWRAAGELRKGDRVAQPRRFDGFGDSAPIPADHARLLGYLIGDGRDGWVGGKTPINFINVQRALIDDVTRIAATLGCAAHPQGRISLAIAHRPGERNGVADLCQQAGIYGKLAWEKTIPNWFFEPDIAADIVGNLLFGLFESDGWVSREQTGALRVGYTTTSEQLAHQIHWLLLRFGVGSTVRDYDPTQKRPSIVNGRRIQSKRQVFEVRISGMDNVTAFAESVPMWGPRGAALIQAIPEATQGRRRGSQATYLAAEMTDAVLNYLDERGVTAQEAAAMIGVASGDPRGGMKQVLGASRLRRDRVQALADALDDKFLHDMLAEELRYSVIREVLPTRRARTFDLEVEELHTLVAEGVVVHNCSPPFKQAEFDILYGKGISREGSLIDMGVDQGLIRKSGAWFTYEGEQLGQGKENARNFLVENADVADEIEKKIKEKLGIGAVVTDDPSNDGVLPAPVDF

Beta-galactosidase = Beta-galactosidase (Escherichia coli, UniProt Q8VNN2); type: functional
Chain of Beta-galactosidase (Q8VNN2 whole entry): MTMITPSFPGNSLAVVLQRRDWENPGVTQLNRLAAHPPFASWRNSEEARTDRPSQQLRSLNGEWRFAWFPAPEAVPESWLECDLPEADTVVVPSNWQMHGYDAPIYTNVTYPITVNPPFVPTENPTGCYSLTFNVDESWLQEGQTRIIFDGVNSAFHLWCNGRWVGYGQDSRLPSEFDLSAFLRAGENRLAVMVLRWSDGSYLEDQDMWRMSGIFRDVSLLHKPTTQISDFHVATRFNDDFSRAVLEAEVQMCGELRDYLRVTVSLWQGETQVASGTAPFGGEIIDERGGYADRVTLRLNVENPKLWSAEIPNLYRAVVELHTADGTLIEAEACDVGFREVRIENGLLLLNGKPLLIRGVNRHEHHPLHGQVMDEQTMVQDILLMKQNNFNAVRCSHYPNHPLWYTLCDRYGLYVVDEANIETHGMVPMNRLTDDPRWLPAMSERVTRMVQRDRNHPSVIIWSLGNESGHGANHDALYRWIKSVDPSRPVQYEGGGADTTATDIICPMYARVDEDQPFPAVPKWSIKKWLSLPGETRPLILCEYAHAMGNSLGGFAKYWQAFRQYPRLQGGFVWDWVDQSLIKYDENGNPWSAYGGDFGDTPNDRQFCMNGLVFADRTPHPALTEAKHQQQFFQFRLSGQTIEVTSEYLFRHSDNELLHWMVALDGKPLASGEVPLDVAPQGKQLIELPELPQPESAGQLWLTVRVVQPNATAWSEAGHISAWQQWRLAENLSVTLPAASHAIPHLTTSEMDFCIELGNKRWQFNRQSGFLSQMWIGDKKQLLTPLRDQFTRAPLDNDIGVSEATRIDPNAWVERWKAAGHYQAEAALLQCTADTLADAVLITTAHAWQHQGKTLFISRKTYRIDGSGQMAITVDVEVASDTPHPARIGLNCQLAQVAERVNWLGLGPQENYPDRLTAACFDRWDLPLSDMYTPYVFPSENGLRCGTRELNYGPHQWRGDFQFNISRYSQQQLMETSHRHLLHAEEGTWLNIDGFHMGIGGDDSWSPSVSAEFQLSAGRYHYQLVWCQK

[14] = biological target: T7, Delta-type opioid receptor (Homo sapiens, UniProt P41143); assay: HTS Image-Based Screen for Antagonists of the DOR Receptor. [Related pubchem assays (depositor defined):AID1777, AID1785, AID1786, AID2133]; type: functional
T7 sequence (P41143 whole entry): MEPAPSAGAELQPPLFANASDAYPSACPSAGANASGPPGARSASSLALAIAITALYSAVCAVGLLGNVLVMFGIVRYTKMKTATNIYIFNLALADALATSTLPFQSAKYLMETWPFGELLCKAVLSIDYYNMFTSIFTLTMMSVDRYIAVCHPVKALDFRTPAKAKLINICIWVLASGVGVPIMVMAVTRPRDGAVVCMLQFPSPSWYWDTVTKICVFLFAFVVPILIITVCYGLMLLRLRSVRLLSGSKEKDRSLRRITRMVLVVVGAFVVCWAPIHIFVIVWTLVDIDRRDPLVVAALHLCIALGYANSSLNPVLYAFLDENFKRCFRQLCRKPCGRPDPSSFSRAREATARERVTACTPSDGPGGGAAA

[15] = biological target: T7, Delta-type opioid receptor; assay: HTS Image-Based Screen for Agonists of the DOR Receptor. [Related pubchem assays (depositor defined):AID1777, AID1786, AID2133]; type: functional
Mu-type opioid receptor = Mu-type opioid receptor (Homo sapiens, UniProt P35372); assay: HTS Image-Based Screen for Agonists of the MOR Receptor. [Related pubchem assays (depositor defined):AID1777, AID1785, AID1786, AID2133]; type: functional;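 note: imaging of beta-arrestin GFP recruitment into spots after receptor activation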
Chain of Mu-type opioid receptor (P35372 whole entry): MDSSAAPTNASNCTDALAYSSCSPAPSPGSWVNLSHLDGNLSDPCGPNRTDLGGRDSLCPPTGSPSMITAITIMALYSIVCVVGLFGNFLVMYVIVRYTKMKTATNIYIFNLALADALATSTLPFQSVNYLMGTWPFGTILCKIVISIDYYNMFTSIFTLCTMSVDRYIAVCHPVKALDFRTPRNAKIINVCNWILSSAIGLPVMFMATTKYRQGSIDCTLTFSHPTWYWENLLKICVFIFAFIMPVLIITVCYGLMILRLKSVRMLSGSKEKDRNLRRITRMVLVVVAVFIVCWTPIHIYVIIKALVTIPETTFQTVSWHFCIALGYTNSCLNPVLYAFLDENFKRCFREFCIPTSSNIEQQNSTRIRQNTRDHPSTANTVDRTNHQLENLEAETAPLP

[16] = biological target: T8, Replicative DNA helicase DnaB (Mycobacterium tuberculosis, UniProt P9WMR3); assay: DnaB intein splicing inhibitors, dose response, biochemical, cell-free fluorescence (AID 449749); type: functional
T8 sequence (P9WMR3 whole entry): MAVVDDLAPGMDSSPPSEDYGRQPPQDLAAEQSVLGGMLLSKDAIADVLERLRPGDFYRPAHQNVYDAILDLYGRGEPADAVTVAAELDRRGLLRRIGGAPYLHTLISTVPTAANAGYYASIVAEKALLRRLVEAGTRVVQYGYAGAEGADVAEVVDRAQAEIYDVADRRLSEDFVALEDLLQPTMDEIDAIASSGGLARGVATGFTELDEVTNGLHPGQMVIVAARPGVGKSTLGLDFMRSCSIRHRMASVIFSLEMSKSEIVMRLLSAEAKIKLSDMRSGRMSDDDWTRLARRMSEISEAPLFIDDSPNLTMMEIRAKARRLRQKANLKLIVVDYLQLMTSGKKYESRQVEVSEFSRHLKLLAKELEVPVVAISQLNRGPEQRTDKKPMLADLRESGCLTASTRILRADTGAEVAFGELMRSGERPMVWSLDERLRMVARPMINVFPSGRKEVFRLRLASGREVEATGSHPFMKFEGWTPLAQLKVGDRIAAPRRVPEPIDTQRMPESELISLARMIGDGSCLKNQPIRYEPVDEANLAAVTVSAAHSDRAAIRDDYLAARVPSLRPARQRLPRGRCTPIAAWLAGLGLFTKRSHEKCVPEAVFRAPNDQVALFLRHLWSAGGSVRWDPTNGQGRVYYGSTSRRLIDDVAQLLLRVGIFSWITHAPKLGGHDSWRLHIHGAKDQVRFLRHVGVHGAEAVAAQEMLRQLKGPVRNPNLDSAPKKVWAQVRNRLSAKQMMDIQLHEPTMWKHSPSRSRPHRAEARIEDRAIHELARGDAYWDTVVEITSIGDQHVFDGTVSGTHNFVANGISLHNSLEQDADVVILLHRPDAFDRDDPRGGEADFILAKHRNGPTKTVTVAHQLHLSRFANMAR

[17] = biological target: T9, Kappa-type opioid receptor (Homo sapiens, UniProt P41145); type: functional
T9 sequence (P41145 whole entry): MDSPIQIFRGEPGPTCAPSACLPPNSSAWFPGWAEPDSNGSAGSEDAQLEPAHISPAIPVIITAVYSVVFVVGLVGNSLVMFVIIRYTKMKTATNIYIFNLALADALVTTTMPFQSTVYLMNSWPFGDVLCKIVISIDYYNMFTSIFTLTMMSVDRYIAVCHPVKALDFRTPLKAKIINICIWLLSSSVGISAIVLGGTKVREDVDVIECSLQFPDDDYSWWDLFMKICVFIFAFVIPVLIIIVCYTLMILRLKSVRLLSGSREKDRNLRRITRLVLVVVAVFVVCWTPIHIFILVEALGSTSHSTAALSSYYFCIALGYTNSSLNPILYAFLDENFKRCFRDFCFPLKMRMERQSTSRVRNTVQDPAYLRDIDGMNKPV

[18] = biological target: T9, Kappa-type opioid receptor; type: functional; remark: listed apart in the source
Cannabinoid receptor 1 [19] = biological target: T3, Cannabinoid receptor 1; assay: SAR analysis of agonists of the Cannabinoid Receptor 1 using an Image-Based Assay - Set 4. [Related pubchem assays (depositor defined):AID2013, AID2026]; type: functional
Cannabinoid receptor 2 [20] = biological target: T2, Cannabinoid receptor 2; assay: SAR analysis of antagonists of the Cannabinoid Receptor 2 using an Image-Based Assay - Set 3. [Related pubchem assays (depositor defined):AID2013, AID2026]; type: functional
[21] = biological target: T5, G-protein coupled receptor 55; assay: SAR Analysis of Selective Antagonists of GPR55 using an Image-Based Assay - Set 4. [Related pubchem assays (depositor defined):AID2013, AID2026]; type: functional
Cannabinoid receptor 2 [22] = biological target: T2, Cannabinoid receptor 2; assay: SAR analysis of agonists of the Cannabinoid Receptor 2 using an Image-Based Assay - Set 3. [Related pubchem assays (depositor defined):AID2013, AID2026]; type: functional
[23] = biological target: T1, G-protein coupled receptor 35; assay: SAR analysis of Antagonists of the GPR35 Receptor using an Image-Based Assay - Set 6. [Related pubchem assays (depositor defined):AID2013, AID2026]; type: functional
[24] = biological target: T1, G-protein coupled receptor 35; assay: SAR analysis of Agonists of the GPR35 Receptor using an Image-Based Assay - Set 4. [Related pubchem assays (depositor defined):AID2013, AID2026]; type: functional
Cannabinoid receptor 1 [25] = biological target: T3, Cannabinoid receptor 1; assay: SAR analysis of antagonists of the Cannabinoid Receptor 1 using an Image-Based Assay - Set 4. [Related pubchem assays (depositor defined):AID2013, AID2026]; type: functional
[26] = mammalian cell cytotoxicity, dose response, cytotoxicity control, plate reader, cherry-pick samples (AID 504397); type: functional, cell-based
CAAX prenyl protease 2 = CAAX prenyl protease 2 (Saccharomyces cerevisiae S288c, UniProt Q03530); type: biochemical
Chain of CAAX prenyl protease 2 (Q03530 whole entry): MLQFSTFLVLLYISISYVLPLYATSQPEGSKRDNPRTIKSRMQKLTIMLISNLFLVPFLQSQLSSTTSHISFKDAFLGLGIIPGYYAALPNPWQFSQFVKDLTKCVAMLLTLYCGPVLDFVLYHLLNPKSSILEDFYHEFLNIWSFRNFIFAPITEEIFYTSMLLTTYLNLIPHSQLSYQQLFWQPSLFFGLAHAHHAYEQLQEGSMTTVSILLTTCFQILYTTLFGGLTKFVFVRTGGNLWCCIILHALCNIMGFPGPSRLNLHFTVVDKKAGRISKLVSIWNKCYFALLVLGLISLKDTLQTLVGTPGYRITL

T1 sequence (Q9HC97 whole entry): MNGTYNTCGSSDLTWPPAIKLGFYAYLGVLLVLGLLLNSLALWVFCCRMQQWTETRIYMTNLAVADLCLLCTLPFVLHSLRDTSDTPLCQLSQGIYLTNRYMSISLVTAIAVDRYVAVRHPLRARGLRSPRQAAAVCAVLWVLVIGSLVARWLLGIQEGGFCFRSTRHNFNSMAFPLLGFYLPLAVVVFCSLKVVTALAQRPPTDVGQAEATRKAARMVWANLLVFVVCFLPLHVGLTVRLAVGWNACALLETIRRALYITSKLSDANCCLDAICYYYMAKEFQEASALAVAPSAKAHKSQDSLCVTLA

CC1=CC(C)(C)N2C(=O)C3(SCC(=O)N3c3ccc(F)cc3)c3cc(C)cc1c32 (stereo unspecified)
inactive: EC50 [1] > 32 µM | EC50 (Cannabinoid receptor 2 [2]) > 32 µM | EC50 (Cannabinoid receptor 1 [6]) > 32 µM | IC50 (Cannabinoid receptor 2 [10]) > 32 µM | IC50 [11] > 32 µM
< 10 µM: Absolute IC50 (XBP1) (X-box-binding protein 1)
active: IC50 (Cannabinoid receptor 1 [3]) 6.41 µM | AC50 [4] 23.7 µM | AC50 [5] 21.8 µM | AC50 [7] 43.1 µM | AC50 [8] 1.13 µM | AC50 [9] 53.1 µM | IC50 [12] 1.42 µM | IC50 [13] 4.09 µM

O=[N+]([O-])c1ccc2nc(Cl)nc(-c3ccccc3)c2c1
active: AC50 [16] 134 µM | IC50 [18] 8.95 µM
inactive: EC50 (Protein RecA) > 380 µM | EC50 (Beta-galactosidase) > 31.5 µM | IC50 [14] > 32 µM | EC50 [15] > 32 µM | EC50 (Mu-type opioid receptor) > 32 µM
4.55: pIC50 [17]

Cc1nc(N2CCN(C(=O)C3CCCCC3)CC2)c2c3c(sc2n1)CCCC3
inactive: EC50 (Cannabinoid receptor 1 [19]) > 32 µM | IC50 (Cannabinoid receptor 2 [20]) > 16.8 µM | EC50 (Cannabinoid receptor 2 [22]) > 32 µM | IC50 [23] > 32 µM | EC50 [24] > 32 µM
active: IC50 [21] 9.24 µM | IC50 (Cannabinoid receptor 1 [25]) 3.05 µM

Cc1ccsc1/C=N/NC(=O)c1nnn(-c2nonc2N)c1C(C)C
active: AC50 [26] 67.6 µM | AC50 (CAAX prenyl protease 2) 0.87 µM
